Reference: article PMC11098465, “A comparative analysis of peptide-delivered antisense antibiotics using diverse nucleotide mimics” (RNA, 2024)

Tests used:
AcpP::3xFLAG = assay: Western blot of AcpP::3xFLAG protein levels after ASO treatment; type: cell-based, Salmonella enterica serovar Typhimurium SL1344 AcpP::3xFLAG; set-up: key to AcpP protein reduction: +++: Effect strength is represented by additional (+) signs.; ++: Effect strength is represented by additional (+) signs.; Effect strength is represented by additional (+) signs; conditions: for AcpP protein levels after treatment (in words): KFF-ASO 5 µM, 30, 60, 120 min; for AcpP protein reduction: KFF-ASO constructs at 5 µM, 120 min, summary grade
From the text: We have previously shown that PNAs targeting acpP lead to rapid depletion of the target transcript ([Hör et al. 2022]; [Popella et al. 2022]; [Jung et al. 2023]), although this is not a universal phenomenon and varies from transcript to transcript ([Popella et al. 2022]). In other words, an ASO might block target protein synthesis without substantially impacting mRNA levels. Therefore, we wanted to test if the different ASO modalities affect AcpP protein levels in cellulo despite their inability to deplete the acpP transcript. We took advantage of Salmonella expressing a FLAG-tagged AcpP (AcpP::3xFLAG) protein from its native locus. First, we exposed the bacterial cells to PMO and PNA for 30, 60, or 120 min (Fig. 9A) to determine the best time point for our analysis.
Salmonella WT and SL1344 AcpP::3xFLAG were grown overnight in noncation adjusted MHB. Bacterial cultures were diluted 1:100, grown to OD600 0.5, and subsequently diluted to ∼10^6 cfu/mL in MHB. Then, 1.9 mL of each diluted bacterial solution was transferred into 5 mL low-binding tubes, preincubated at 37°C for 10 min, and treated with 100 µL of ASOs to adjust a final concentration of 5 µM. Water was added as negative control. The treatment with PNA and PMO was performed with aeration at 37°C and 220 rpm shaking for 30, 60, and 120 while for all other ASOs, they were treated for 120 min only. Subsequently, the cells were collected by centrifugation at 4°C and 16,000g for 5 min, resuspended in 1× Protein Loading Buffer (62.6 mM Tris–HCl pH 6.8, 2% SDS, 0.1 mg/mL bromophenol blue, 15.4 mg/mL DTT, 10% glycerol) and denatured at 95°C for 10 min.
For detection of AcpP::3xFLAG protein levels, samples were separated on a 12% SDS-PAA gel and transferred onto a nitrocellulose membrane via semi-dry western blotting. The membrane was probed with an α-FLAG antibody (Sigma; 1:1000 in 1× TBS-T containing 3% BSA) at 4°C overnight. After washing in 1× TBS-T, the membrane was incubated with a secondary HRP-conjugated antimouse antibody (Thermo Scientific; 1:5000 in 1× TBS-T containing 1% BSA) at RT for 1 h. Excessive antibody was removed by repeated wash-steps in 1× TBS-T, and the membrane was developed by an Amersham ECL Select Western Blotting Detection Reagent Kit (Cytiva).

Salmonella periplasm = assay: MALDI-TOF-based analysis of ASO-peptide conjugate uptake; type: cell-based; set-up: key to Uptake inside bacteria (MS): +++: Effect strength is represented by additional (+) signs.; ++: Effect strength is represented by additional (+) signs.; Effect strength is represented by additional (+) signs; conditions: 15 min; for Detection in the periplasmic fraction (in words): 10 µM KFF-ASO conjugates, MALDI MS; for Uptake inside bacteria (MS): ASO conjugated to the carrier peptide, 10 µM, MALDI-TOF of periplasm, summary grade
Description: Finally, to directly test if the ASO conjugates translocate into Salmonella, we used MALDI mass-spectrometry (MS) to identify ASO fragments in the bacterial periplasm after treatment with 10 µM KFF-ASO conjugates for 15 min (Table 2; Supplemental Figs. S7 and S8). […] This is in line with a study that reported that the KFF peptide is cleaved within the periplasm before translocation into the cytoplasm ([Yavari et al. 2021]). […] Importantly, none of the negASOs were detected in this subcellular fraction (Supplemental Fig. S8), likely explaining the lack of antibacterial effects against Salmonella.
The experiments were performed by modifying previously published protocols ([Yavari et al. 2021]). From an overnight culture of Salmonella, a second culture was inoculated (1:100) and grown to OD600 of 0.5 (corresponding to ∼2 × 10^8 cfu/mL). These bacterial cells were washed twice in MHB and resuspended in 95 µL of MHB with an additional incubation at 37°C for 5–10 min. Sterile ASO-peptide conjugates were prepared at concentrations of 200 µM. Five microliters of the 200 µM working solutions were added to 95 µL of bacteria in culture media, leading to a final concentration of the compounds of 10 µM. Five microliters of H2O was added as a negative control. The tubes were incubated at 37°C for 15 min with shaking at 300 rpm. Subsequently, they were centrifuged at 8000g for 5 min at 4°C. The supernatant was aspirated, and the pellet was washed with 0.01 M Tris-HCl before being resuspended in 200 µL of 0.01M Tris-HCl containing 0.5 M Sucrose, 150 µg/mL lysozyme, 10 mM EDTA and incubated at 37°C overnight. These tubes were then centrifuged at 2000g at 4°C for 10 min. The supernatant obtained represents the periplasm. The periplasm fragment was then mixed with 2,6-Dihydroxyacetophenone (DHAP) in ACN 1:1, spotted on a MALDI plate, and analyzed for MALDI-TOF-MS in a Bruker DaltonicsUltrafleXtreme Instrument. The experiment was performed two times, and data of one representative experiment are shown.

Substance	AcpP protein levels after treatment (in words) (AcpP::3xFLAG)	AcpP protein reduction (AcpP::3xFLAG)	Detection in the periplasmic fraction (in words) (Salmonella periplasm)	Uptake inside bacteria (MS) (Salmonella periplasm)	Fragments detected (Salmonella periplasm; periplasm, 10 µM KFF-ASO conjugate, MALDI-TOF-MS)
PNA: peptide nucleic acid 10mer ASO, sequence CTCATACTCT, targeting acpP −5 to +5 (all peptide nucleic acid (PNA))	depletion in AcpP levels can be observed from 60 min post-treatment onward	++	detected in the periplasmic fraction	+	
PMO: phosphorodiamidate morpholino 10mer ASO, sequence CTCATACTCT, targeting acpP −5 to +5 (all phosphorodiamidate morpholino (PMO))	gradual depletion of AcpP, albeit less pronounced than PNA	+	detected in the periplasmic fraction	+	only the PMO fragment was observed in the periplasm
